Reference: PubChem BioAssay AID743267 (Broad Institute, 2014)

These molecules were tested on human bronchial epithelial cells, CFTR corrector, plate reader (assay: rescue of ΔF508 CFTR function, airway epithelium – human bronchial epithelial cells, plate reader, cherry-pick, two tests, dose response (AID 743267)). Details: measured here: test 1 replicate run.
COc1cccc(S(=O)(=O)N2C[C@@H]3N[C@H](C2)C3c2ccc(-c3cccc(C)c3)cc2)c1 (stereo partly specified) was tested, and the AC50 was 16 µM.
CN1c2ccc(-c3ccc(F)cc3)cc2[C@H]2[C@H](CCN2S(=O)(=O)c2ccc(F)cc2)[C@H]1CO gave an AC50 of 6.55 µM.
With Cc1ccc(-c2ccc3c(c2)O[C@H](CN(C)Cc2ccccn2)[C@@H](C)CN([C@@H](C)CO)S3(=O)=O)cc1 the AC50 was 18 µM.
With COc1ccc(CNC(=O)c2cc3c(c(-c4cccc(-c5ccc(C#N)cc5)c4)n2)[C@@H](CCO)N([S@](=O)C(C)(C)C)C3)cc1 the AC50 was greater than 50 µM.

Same assay, conditions: measured here: test 2 replicate run
CCN1CCCC(OC(=O)c2cc(-c3ccccc3Cl)nc3ccccc23)C1 (stereo unspecified) gave an AC50 of 43.9 µM.
For Cc1cc2oc(C(=O)NCCc3ccc(S(N)(=O)=O)cc3)c(C)c2cc1C, the AC50 was 0.901 µM.
Work on CCN[C@H]1CN(CCCOC)S(=O)(=O)c2sc(S(N)(=O)=O)cc21 yielded an AC50 of 0.0398 µM.
COc1ccc(C(=O)c2cc([N+](=O)[O-])ccc2N2CCN(C)CC2)cc1 showed an AC50 of 3.74 µM.
For CCN1CCN(c2cc(C)c3cc(NC(=O)c4ccc(OC)c(OC)c4)ccc3n2)CC1, the AC50 was 1.61 µM.
O=C1c2cccc3c(O)ccc(c23)C(=O)N1Cc1ccco1 was tested, and the AC50 was 13.3 µM.
Molecule Cc1cc2c(cc1C)C(c1ccccc1OC(C)C)CC(=O)N2 (stereo unspecified) has an AC50 of 1.85 µM.
CCOC(=O)c1ccc(-c2c(-c3cc(OC)c(OC)c(OC)c3)noc2C)cc1F showed an AC50 of 1.2 µM.
O=C(NCCCN1CCOCC1)c1sc2cc(Cl)ccc2c1Cl gave an AC50 of 1.76 µM.
For CC1(C(=O)NCc2cccs2)Cc2c(-c3ccc4c(c3)OCO4)ccnc2O1 (stereo unspecified), the AC50 was 2.69 µM.
Work on N#CC1=C(N)Oc2cc(N)ccc2C1c1cccc(F)c1 (stereo unspecified) yielded an AC50 of 3.15 µM.
Work on Cc1cccc(N(C)C(=O)c2cc3c(=O)[nH]c4ccc(C)cc4c3s2)c1 yielded an AC50 of 4.72 µM.
CCOC(=O)c1c(C)[nH]c(C(=O)N/N=C\c2ccccc2O)c1C showed an AC50 of 3.36 µM.
With COc1ccc(C(=O)OCC(=O)N2C(C)CCCC2C)cc1S(=O)(=O)N1CCOCC1 (stereo unspecified) the AC50 was 29.6 µM.
Molecule O=C1NC(=Nc2cccnc2)S/C1=C/c1ccc(F)cc1 has an AC50 of 9.27 µM.
COc1cc(OC)cc(-c2cc3ccc(OC)cc3cn2)c1 showed an AC50 of 43.6 µM.
For Cc1ccc2nc(-c3ccc4c(c3)OCCO4)cn2c1, the AC50 was 2.33 µM.
Cc1cccc(N2CCN(Cc3cn(C)nc3-c3ccccc3F)CC2)n1 gave an AC50 of 2.43 µM.
In the case of O=C(NCCN1C(=O)S/C(=C\c2ccc(OC(F)F)cc2)C1=O)c1cnccn1, the AC50 is reported as 1.85 µM.
In the case of CC(C)Oc1ncnc2c1[nH]c1ccccc12, the AC50 is reported as 9.38 µM.
Work on CCOC(=O)c1c(C)[nH]c(C(=O)N/N=C/c2ccc(OC)c(OC)c2)c1C yielded an AC50 of 2.93 µM.
O=C(NCc1ccccc1)C1Cc2c(-c3cccc(F)c3)ccnc2O1 (stereo unspecified) showed an AC50 of 0.893 µM.
With CC(C)Nc1ccc(Nc2ccnc3cc4ccccc4cc23)cc1 the AC50 was 7.34 µM.
O=c1ccc2c(-c3ccccc3)c3ccc(O)cc3oc-2c1 was tested, and the AC50 was 2.2 µM.
For O=C(Nc1cccc(C2=NCCN2)c1)Nc1cccc(C2=NCCN2)c1, the AC50 was 20.7 µM.
With COc1cc(OC)c2c(-c3cccc(-c4sccc4C(C)=O)c3)cc(=O)oc2c1 the AC50 was 12.2 µM.
Molecule CN[C@H]1CCc2cc(OC)c(OC)c(OC)c2-c2ccc(N(C)CC(OC)OC)c(=O)cc21 has an AC50 of 3.25 µM.
NC1(C(=O)O)CC1 showed an AC50 greater than 50 µM.
With O=C(CCC(=O)N1CCOc2ccc(Cl)cc21)N1CCN(c2ccccn2)CC1 the AC50 was greater than 50 µM.
Work on CC(C)CN(CCCNC(=O)CN1C(=O)CSc2ccc(S(=O)(=O)N3CCOCC3)cc21)CC(C)C yielded an AC50 greater than 50 µM.
In the case of Nc1nc(Cl)nc2c1ncn2C1CC(O)C(CO)O1 (stereo unspecified), the AC50 is reported as 2.73 µM.
With COc1ccc(C(=O)c2cc(OC)c(OC)c(OC)c2)cc1OC the AC50 was 2.72 µM.
O=C(c1cccc(S(=O)(=O)N2CCN(c3ccc(F)cc3)CC2)c1)N1CCCC(C(F)(F)F)C1 (stereo unspecified) showed an AC50 of 16 µM.
CCOc1ccc(C(=O)COC(=O)Cc2n[nH]c(=O)c3ccccc23)cc1 was tested, and the AC50 was 2.53 µM.
In the case of CCOC(=O)N1CCN(C(=O)C2CCC(=O)N(CCCN3CCCC3=O)C2)CC1 (stereo unspecified), the AC50 is reported as 10.5 µM.
N#CCC(=O)N/N=C/c1cn(Cc2cccc3ccccc23)c2ccccc12 showed an AC50 of 2.86 µM.
In the case of Cc1ccc(OCC(=O)Nc2ccc3c(c2)ncn3C)cc1, the AC50 is reported as greater than 50 µM.
COc1ccc(NCC(=O)n2c(C)c(C)c3ccccc32)cc1 gave an AC50 of 5.59 µM.
COc1ccc(N2CCc3c(C)nc4c(OC)cc(OC)cc4c32)cc1 was tested, and the AC50 was greater than 50 µM.
CCN(CC)CCCNc1nc2ccccc2c2nc(-c3ccncc3)nn12 showed an AC50 of 6.34 µM.
With COc1ccc(-c2cc(NC=O)c3ncc(-c4ccc(OC)c(OC)c4)n3c2)cc1 the AC50 was 22.3 µM.
With Nc1sc(-c2ccccc2)cc1-c1n[nH]c(=S)n1C1CCCCC1 the AC50 was 2.45 µM.
Molecule COc1ccccc1NS(=O)(=O)c1cc(-c2cnc(C3CC3)o2)ccc1C has an AC50 of 9.51 µM.
With CC1=C/C(=C\C=C(C#N)C#N)N(C)c2ccccc21 the AC50 was 12.9 µM.
CC(=O)c1ccc(Nc2cc(C)nc3c(C)cc(C)cc23)cc1 showed an AC50 of 3.11 µM.
Work on N#CC(C#N)=C1C=C2C=C(N3CCOCC3)CCC2CC1 (stereo unspecified) yielded an AC50 of 28.2 µM.
In the case of COc1ccc([C@H]2C[C@H](O)[C@@H](n3cc(-c4ccc(F)cc4)nn3)CN2Cc2cccs2)cc1, the AC50 is reported as 16 µM.
N#CC1=C(N)OC2=C(CCc3ccccc32)C1c1ccccc1Cl (stereo unspecified) gave an AC50 of 2.61 µM.
Work on COc1cc(C(=O)Nc2ccccc2C(=O)Nc2ccccn2)cc(OC)c1OC yielded an AC50 of 4.59 µM.
In the case of Cc1ccc(S(=O)(=O)N(Cc2cc3ccccc3[nH]c2=O)c2cccc(C)c2)cc1, the AC50 is reported as 8.17 µM.
Nc1c2ccccc2nc2ccccc12 showed an AC50 of 2.62 µM.
With Cc1cccc(N2CCN(S(=O)(=O)c3cc(-c4cc(C)no4)ccc3C)CC2C)c1 (stereo unspecified) the AC50 was 2.57 µM.
In the case of COc1ccc(COc2cc(-c3cccc(OC)c3)nc3ccc(NC(=O)c4ccc(OC)cc4)cc23)cc1, the AC50 is reported as 1.89 µM.
COCCOC(=O)c1[nH]c2c(c1C)C(=O)CC(c1cccs1)C2 (stereo unspecified) showed an AC50 of 4.16 µM.
In the case of CCN(CC)c1ccc(/C=N/NC(=O)c2cnccn2)c(O)c1, the AC50 is reported as 2.2 µM.
COc1ccc(OC)c(N/C(N)=N/c2nc(C)cc(C)n2)c1 showed an AC50 of 39.4 µM.
Work on O=C(O)c1ccccc1-c1c2cc(I)c(=O)c(I)c-2oc2c(I)c(O)c(I)cc12 yielded an AC50 of 16.7 µM.
Molecule Cc1ccc(S(=O)(=O)N2CCCCC2CCNC(=O)C(=O)NCc2ccccc2)cc1 (stereo unspecified) has an AC50 of 3.29 µM.
Molecule CCN(Cc1ccccc1)c1ccc(/C=N/N=C(N)N)cc1 has an AC50 of 4.74 µM.
CC(=NNC(=O)c1ccncc1)c1ccc2ccccc2c1O showed an AC50 of 7.94 µM.
Molecule COc1cc2c(C#CCCO)c(-c3ccsc3)oc(=O)c2cc1OC has an AC50 of 5.52 µM.
Cc1cc(Cl)cc(C)c1OCCn1ccnc1 showed an AC50 of 4.68 µM.
For C[C@@H]1O[C@@H](O[C@@H]2C=C3CC[C@@H]4C(CC[C@]5(C)[C@@H](c6ccc(=O)oc6)CC[C@]45O)[C@@]3(C)CC2)[C@H](O)[C@H](O)[C@H]1O (stereo partly specified), the AC50 was 1.42 µM.
In the case of Nc1ccc2c3c(cccc13)C(=O)N(c1ccccc1)C2=O, the AC50 is reported as 16 µM.
With CCCCNC(=O)C(=O)Nc1ccc2c(c1)N(S(=O)(=O)c1cccs1)CCC2 the AC50 was 1.89 µM.
Cc1ncc(CO)c(/C=N/Nc2ccc(C(F)(F)F)cn2)c1O showed an AC50 of 1.18 µM.
In the case of Cc1cc(NCc2ccccn2)n2ncc(-c3ccccc3)c2n1, the AC50 is reported as 15.9 µM.
